Like-named read-outs stand apart in the source and are kept apart here.
Tests used:
human washed platelets [1] = assay: Platelet-fibrinogen spreading assay; type: cell-based; conditions: 25 μg/mL fibrinogen-coated slides
Description: (§1) As previously reported ([Banfi et al., 2022]), 50 μg/mL collagen and 25 μg/mL fibrinogen (Cat No. F3879-100 MG; Sigma-Aldrich, St. Louis, MO, United States) were used to coat coverslips overnight at 4°C. […] The coated slides were washed three times with PBS and blocked with 1% BSA (prepared in PBS) for 1 h at room temperature. The blocking solution was removed, and WPs were added for adhesion experiments. The WPs were allowed to adhere to the slides for 15–60 min at 37°C. The unadhered platelets were removed by PBS. The platelets were fixed with 2% paraformaldehyde solution for 15 min, broken using 1% Triton-100 for 5 min, and stained with phalloidin (1:1,000, Cat No.17466-45-4, Sigma-Aldrich) for 30 min away from light at room temperature. The platelet morphology was observed using an Olympus ix73 microscope (Olympus Corp., Shinjuku, Japan) and photographed. The number of platelet adhesions and spreading area were analyzed and calculated using ImageJ software.

human washed platelets [2] = assay: Platelet ATP release assay (luciferin/luciferase); type: cell-based; conditions: for IC50: Homo sapiens, Platelet
Description: Blood was collected from a median cubital vein using a 3.8% sodium citrate anticoagulation tube with a 1:9 dilution ratio. The platelets were washed using a previously described method with slight modification ([Babur et al., 2020]; [Uphaus et al., 2022]). The blood was centrifuged at room temperature at 300 × g for 10 min to separate platelet-rich plasma (PRP). PRP was added to 50 ng/mL of PGE1 and 5 mM EDTA, centrifuged at 2,000 × g for 2 min at room temperature, and the platelet precipitate was obtained after discarding the supernatant. The modified HEPES-Tyrode’s buffer (20 mM 4-(2-Hydroxyethyl)-1-piperazine ethane sulfonic acid [HEPES], pH 7.3, 129 mM NaCl, 2.9 mM KCl, 12 mM NaHCO3, 0.34 mM Na2HPO4, 20 mM HEPES, 5 mM D-Glucose, 1 mM MgCl2) was used to resuspend the platelets, added with 50 ng/mL PGE1 and 5 mM EDTA, and the platelets were washed by centrifugation at 2,000 ×g for 2 min at room temperature. The washed platelets (WP) were resuspended using modified HEPES-Tyrode’s buffer, and the platelet count was adjusted to 150–200 × 10^9/L.
Platelet aggregation and ATP release were detected using the Chrono-Log platelet aggregation instrument (Chrono-Log Corp., Havertown, Pennsylvania, United States), as previously reported ([Babur et al., 2020]). […] In addition, 1 mM CaCl2 and different platelet activators (ADP, collagen, and thrombin; Chrono-Log Corp., Havertown, Pennsylvania, United States; U46619, from Sigma, St. Louis, MO, United States; convulxin, sc-202554 from Santa Cruz Biotechnology, Santa Cruz, CA, United States) were added to each group before the start of the aggregation assay. For the ATP release experiments, the platelets were incubated with 50 ng/mL luciferin and D-luciferase (Cat No. 395; Chrono-Log Corp.) for 2 min before the addition of activators. The platelet aggregation and ATP release curves were traced during experiments.

NOXs = assay: NADPH oxidase (NOX) activity assay in platelet lysate; type: cell-based, human; conditions: convulxin (5 ng/mL)- and collagen (10 μg/mL)-induced; VAS2870 10 μM
Description: MDA, SOD, GPx, and NADPH oxidase activity were measured as previously described ([Krotz et al., 2002]; [Paul et al., 2019]; [Pan et al., 2021]). After incubation and activation, the reaction was stopped by adding 10 mM EGTA. The platelets were pelleted by centrifugation at 20,000 × g for 10 min at 4°C and resuspended in Tyrode’s buffer with 0.1% phosphatase and protease inhibitors (Cat No. 04906837001, Roche Applied Science, Penzberg, Germany; Cat No. P-8340, Sigma, St. Louis, MO, United States). The platelets were disrupted by passing them 10 times through a 29-gauge needle, followed by centrifugation at 2000 × g for 10 min at 4°C to separate the supernatant and precipitate. The detection of MDA, SOD, and GPx in the supernatant was performed according to the kit’s instructions for SOD (Cat No. BC0170, Solarbio Life Science, Beijing, China), MDA (Cat No. S0131S, Beyotime Institute of Biotechnology, Shanghai, China) and GPx (Cat No. S0056, Beyotime Institute of Biotechnology, Shanghai, China). In order to determine NADPH oxidase (NOX) activity, platelet lysate (12.5 μg) was incubated with 10 µM lucigenin and 0.5 mM NADPH at 37°C in the dark. The absorbance values were detected at 450 nm using a spectrophotometer Multiskan FC (ThermoFisher Scientific Inc., Waltham, MA, United States). Protein content was determined by the Bradford method.

thrombin = test system: thrombin; set-up: method as in Choi et al. (2015); conditions: ref Choi et al. (2015); cited from earlier work
human washed platelets [3] = assay: Platelet-collagen static adhesion assay; type: cell-based
Description: as §1

Tail bleeding in mice = type: in vivo, C57BL/6 mice; conditions: luteolin 35 μM/kg or aspirin i.p., 30 min after injection; vs DMSO
Description: The tail break hemorrhage experiment in mice was performed as previously reported, with slight modifications ([Liu et al., 2012]). […] Before the experiment, the mouse tails were immersed in saline for 3 min at 37°C. Then, 30 min after injection, the tails were quickly cut off using a surgical knife blade and placed in saline at 37°C. The cutting site was 5 mm from the end of the tail tip. The bleeding time of the broken tails was observed and recorded.

[4] = set-up: method as in Aziz et al., 2018; conditions: intraperitoneal injection; ref Aziz et al., 2018; cited from earlier work

## O=c1cc(-c2ccc(O)c(O)c2)oc2cc(O)cc(O)c12 [Luteolin]
Human washed platelets [1]
  platelet spreading on fibrinogen: inhibited
Human washed platelets [2]; read-out: IC50, inhibition of ATP release, convulxin-induced
  IC50: 2370 nM
Human washed platelets [2]; collagen-induced, read-out: IC50, inhibition of ATP release
  IC50: 2670 nM
Human washed platelets [2]; convulxin- and collagen-induced, concentration-dependent
  effect on platelet ATP release: significantly inhibited
NOXs
  NOXs activity: significantly decreased
thrombin
  thrombin activity: effectively inhibits
Human washed platelets [3]; luteolin 25 µM, at 15, 30, 45, and 60 min
  adherent area vs vehicle: decreased
Human washed platelets [3]; luteolin 25 µM, at 15, 45, and 60 min
  surface per platelet vs vehicle: decreased
Human washed platelets [3]; luteolin 2.5 and 10 µM, at 15 and 45 min
  surface per platelet vs vehicle: decreased
Human washed platelets [3]; luteolin 2.5 and 10 µM, at 60 min
  adherent area vs vehicle: slightly decreased
Human washed platelets [3]; luteolin 10 and 25 µM, at 45 and 60 min
  platelet adherence (number of adherent platelets) on collagen vs vehicle: significantly decreased
Tail bleeding in mice
  tail bleeding time: no significant prolonging effect
[4]
  LD50: 180 mg/kg
